Data reported in US20260041725A1, “MYCONOSIDE-RICH EXTRACT FROM IN VITRO SYSTEMS OF PLANTS BELONGING TO GENERA HABERLEA AND RAMONDA, METHOD OF PREPARATION, AND USE AS CHEMO-, RADIO- AND UV PROTECTOR” (INNOVA BM Ltd., priority 2022, published 2026).

Experiments:
[1] = DPPH radical scavenging activity by direct EPR spectroscopy, with UV protector Oxybenzone (Example 5); conditions: for percentage of trapped DPPH radicals: 0.5% aqueous solution, FIG. 4
Description: The radical scavenging activities (% inhibition) of aqueous solutions (0.5%) of Extract 1, Extract 2 (obtained according to Example 1), Oxybenzone, and 1:1 extract: Oxybenzon combinations (w/w) was evaluated by a DPPH test. A comparative DPPH analysis was carried out and the antioxidant potential of Extract 1, Extract 2, a commercial UV protector (Oxybenzone), as well as combinations of Extract 1 with Oxybenzone and of Extract 2 with Oxybenzone was compared. […] The method of direct EPR spectroscopy was used (Yordanov and Christova, 1997; Karamalakova, 2014). To measure DPPH radical scavenging capacity, 98% ethanolic solution of DPPH (80 mM, stock) was used, room temperature (22° C.), and Extract 1, Extract 2, Oxybenzone and the relevant combinations (at a concentration of 0.5%) were mixed and homogenized. The mixture was incubated in the dark, and examined for DPPH-H/R radicals generated in the system at the 1st, 5th and 10th minute. DPPH solution was used as an internal standard for the EPR signal (FIG. 4).

[2] = test system: human lymphocyte cultures; assay: Cytokinesis-block micronucleus test, irradiated and non-irradiated blood (Example 7); assay type: cell-based; conditions: non-irradiated blood cells; FIG. 7A
Description: The anticlastogenic potential of Extract 1 and Extract 2 (obtained according to Example 1), as well as of the clinically proven cytoprotective agent amifostine, was investigated individually and in combinations on human lymphocyte cultures in vitro before and after exposure to ionizing radiation (gamma rays) by micronucleus scoring tests. […] A compound is considered mutagenic when it increases the spontaneous frequency of the micronuclei (MN) in polychromatic erythrocytes or in lymphocytes. […] The cytokinesis-block micronucleus assay of Fenech, M. and A. Morley (1985) was used to analyze MN in binuclear lymphocytes from peripheral blood. The number of MN found in the examined 500 binuclear cells from cell cultures prepared with irradiated and non-irradiated peripheral venous blood taken from 5 healthy volunteers was investigated. The blood of the donors was exposed to 2.0 Gy 60Co gamma radiation (y-rays) in a water bath (37° C.) with a Rokus-M irradiator at 24 Gy/min. Exposure was calculated depending on the geometrical parameters of the irradiator, the distance and power of the source.

[3] = test system: human lymphocyte cultures; assay: Induced chromosomal aberrations test, before and after gamma irradiation (Example 8); assay type: cell-based; conditions: non-irradiated blood cells; FIG. 8A
Description: The clastogenic activity and anticlastogenic potential of Extract 1 and Extract 2 (obtained according to Example 1), as well as of the clinically proven cytoprotective agent amifostine, were investigated alone and in combination on human lymphocyte cultures in vitro before and after exposure to ionizing radiation (y-rays) through tests for detection of induced chromosomal aberrations.
The study design included a total of 6 groups, including the untreated control. In each group, 5 blood donors were examined, and in each donor 100 metaphase plates obtained from lymphocyte cells from peripheral venous blood were analyzed for chromosomal aberrations, or a total of 500 metaphase plates for each group.
Cell cultures were prepared using the method of Evans H. J. for short-term culturing of peripheral blood lymphocytes and obtaining metaphase plates for chromosome aberration reading. Chromosome microscope slides were observed on an Olympus BX41 microscope at the most convenient magnifications—screening preparations at magnification 63 and detailed analysis of chromosomes for aberrations at magnification 1000. A minimum of 100 metaphases from each sample were analyzed. […] Exposure was calculated depending on the geometrical parameters of the irradiator, the distance and power of the source.

[4] = DPPH radical scavenging activity by direct EPR spectroscopy, with radioprotector amifostine (Example 6); conditions: 0.5% aqueous solution, FIG. 5
Text: It has been proven that free radicals generated after exposure to gamma radiation are highly reactive and can trigger chain reactions leading to significant biological damage and increased oxidative stress. […] They are substances and compounds of synthetic or natural origin that allow the body's cells to withstand higher levels of radiation or can quickly eliminate the harmful genotoxic effects of such radiation and maintain human genome stability. […] (FIG. 5).

[5] = DPPH radical scavenging activity before and after 2.0 Gy gamma irradiation (Example 6); conditions: 0.25% aqueous solution, FIG. 6
Description: The effect of combinations of the investigated extracts with the commercial radioprotector amifostine was also studied before and after gamma irradiation (FIG. 6). 2.0 Gy 60Co gamma radiation (y-rays) was performed in a water bath (37° C.) with a Rokus-M irradiator at 24 Gy/min.

[6] = UVA and UVB light transmission (T %) of dilutions of Extract 2 (Example 4); assay type: physicochemical; conditions: FIG. 3
Description: UVA and UVB light transmission (T %) was studied for different dilutions of Extract 2 (obtained according to Example 1 herein) with myconoside concentrations of 0.11 mg/ml, 0.055 mg/ml, 0.011 mg/ml, 0 0.0055 mg/ml, and 0.00275 mg/ml, as presented in FIG. 3.

## COc1ccc(C(=O)c2ccccc2)c(O)c1 [Oxybenzone]
[1]; 1st minute
  percentage of trapped DPPH radicals: 4.7%
[1]; 5th minute
  percentage of trapped DPPH radicals: 3.2%
[1]; 10th minute
  percentage of trapped DPPH radicals: 2.2%
[1]; 0.5%, Oxybenzone alone vs 1:1 combinations with extracts, p<0.001
  antioxidant activity (in words): very low antioxidant activity

## NCCCNCCSP(=O)(O)O [amifostine]
[2]
  clastogenic activity (number of MN in 500 binuclear cells): lack of clastogenic activity
[3]
  clastogenic activity (frequency of aberrant cells): no clastogenic activity
[4]; 1st minute
  percentage of trapped DPPH radicals: 5.1%
[4]; 5th minute
  percentage of trapped DPPH radicals: 4.5%
[4]; 10th minute
  percentage of trapped DPPH radicals: 3.9%
[5]; after 2.0 Gy gamma irradiation
  percentage of trapped DPPH radicals: 5.9%
[5]; before gamma irradiation
  percentage of trapped DPPH radicals: 2.5%

## O=C(CCc1ccc(O)c(O)c1)O[C@H]1[C@H](O[C@H]2OC[C@](O)(CO)[C@H]2O)[C@@H](O)[C@H](OCCc2ccc(O)c(O)c2)O[C@@H]1CO[C@@H]1OC[C@](O)(CO)[C@H]1O [myconoside, [(2R,3R,4R,5R,6R)-4-[(2R,3R,4R)-3,4-dihydroxy-4-(hydroxymethyl)oxolan-2-yl]oxy-2-[[(2R,3R,4R)-3,4-dihydroxy-4-(hydroxymethyl)oxolan-2-yl]oxymethyl]-6-[2-(3,4-dihydroxyphenyl)ethoxy]-5-hydroxyoxan-3-yl]3-(3,4-dihydroxyphenyl)propanoate]
[6]; maximum concentration of 0.11 mg/ml of myconoside (dilutions of Extract 2 of Example 1)
  protection (UV radiation transmission): 100%
[6]; minimum concentration of 0.011 mg/ml of myconoside (dilutions of Extract 2 of Example 1)
  inhibition of UV radiation transmission: 50%
